The kinase profiling compilation of Christmann-Franck et al. (2016)

Legend:
Experiment in all cases: KINOMEscan competition binding
DCLK2 (human) = DCLK2 (human) (UniProt Q8N568)
KIT (human) = KIT (human) (UniProt P10721)
PAK6 (human) = PAK6 (human) (UniProt Q9NQU5)
HIPK4 (human) = HIPK4 (human) (UniProt Q8NE63)
MAP3K5 (human) = MAP3K5 (human) (UniProt Q99683)
MAPK6 (human) = MAPK6 (human) (UniProt Q16659)
BMP2K (human) = BMP2K (human) (UniProt Q9NSY1)
[1] = test system: RET (human), P07949 [V804M]
MAP4K1 (human) = MAP4K1 (human) (UniProt Q92918)
TIE1 (human) = TIE1 (human) (UniProt P35590)
MKNK2 (human) = MKNK2 (human) (UniProt Q9HBH9)
Chain of MKNK2 (human) (Q9HBH9 whole entry, looked up): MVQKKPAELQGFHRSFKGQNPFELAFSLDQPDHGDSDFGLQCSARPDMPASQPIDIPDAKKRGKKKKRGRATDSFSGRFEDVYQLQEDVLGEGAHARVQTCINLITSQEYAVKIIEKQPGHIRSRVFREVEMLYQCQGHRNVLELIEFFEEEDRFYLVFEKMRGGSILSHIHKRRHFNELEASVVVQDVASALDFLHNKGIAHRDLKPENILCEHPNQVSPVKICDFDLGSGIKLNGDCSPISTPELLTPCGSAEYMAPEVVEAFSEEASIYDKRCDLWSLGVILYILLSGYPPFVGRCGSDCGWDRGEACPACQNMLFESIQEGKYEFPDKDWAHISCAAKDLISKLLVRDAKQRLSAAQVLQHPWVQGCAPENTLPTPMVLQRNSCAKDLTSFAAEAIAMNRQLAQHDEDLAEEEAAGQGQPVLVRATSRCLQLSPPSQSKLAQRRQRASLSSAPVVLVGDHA

MAPK11 (human) = MAPK11 (human) (UniProt Q15759)
NEK2 (human) = NEK2 (human) (UniProt P51955)
CDK11B (human) = CDK11B (human) (UniProt P21127)
[2] = test system: FLT3 (human), P36888 [K663Q]
MERTK (human) = MERTK (human) (UniProt Q12866)
SIK1 (human) = SIK1 (human) (UniProt P57059)
CHUK (human) = CHUK (human) (UniProt O15111)
CSNK1A1 (human) = CSNK1A1 (human) (UniProt P48729)
Chain of CSNK1A1 (human) (P48729 whole entry, looked up): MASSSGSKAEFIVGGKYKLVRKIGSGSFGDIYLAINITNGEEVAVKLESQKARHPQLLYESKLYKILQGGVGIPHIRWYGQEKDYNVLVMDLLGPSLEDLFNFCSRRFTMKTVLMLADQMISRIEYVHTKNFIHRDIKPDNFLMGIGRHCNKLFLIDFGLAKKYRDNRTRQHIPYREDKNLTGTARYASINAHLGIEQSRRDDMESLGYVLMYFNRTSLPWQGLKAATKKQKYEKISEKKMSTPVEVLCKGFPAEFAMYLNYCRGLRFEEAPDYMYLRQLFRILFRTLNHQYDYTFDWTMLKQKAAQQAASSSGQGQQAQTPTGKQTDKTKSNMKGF

PIM2 (human) = PIM2 (human) (UniProt Q9P1W9)
GAK (human) = GAK (human) (UniProt O14976)
RPS6KA5 KD2 (human) = RPS6KA5 KD2 (human) (UniProt O75582)
[3] = test system: EGFR (human), P00533 [L861Q]
OXSR1 (human) = OXSR1 (human) (UniProt O95747)
CSNK1E (human) = CSNK1E (human) (UniProt P49674)
CAMK1G (human) = CAMK1G (human) (UniProt Q96NX5)
AURKC (human) = AURKC (human) (UniProt Q9UQB9)
NEK11 (human) = NEK11 (human) (UniProt Q8NG66)
NEK1 (human) = NEK1 (human) (UniProt Q96PY6)
EPHB2 (human) = EPHB2 (human) (UniProt P29323)
[4] = test system: ABL1 (human), P00519 [Y253F]
ANKK1 (human) = ANKK1 (human) (UniProt Q8NFD2)
IRAK1 (human) = IRAK1 (human) (UniProt P51617)
PRKAA1 (human) = PRKAA1 (human) (UniProt Q13131)
MAP2K3 (human) = MAP2K3 (human) (UniProt P46734)
PIP5K1C (human) = PIP5K1C (human) (UniProt O60331)
NTRK1 (human) = NTRK1 (human) (UniProt P04629)
Chain of NTRK1 (human) (P04629 whole entry, looked up): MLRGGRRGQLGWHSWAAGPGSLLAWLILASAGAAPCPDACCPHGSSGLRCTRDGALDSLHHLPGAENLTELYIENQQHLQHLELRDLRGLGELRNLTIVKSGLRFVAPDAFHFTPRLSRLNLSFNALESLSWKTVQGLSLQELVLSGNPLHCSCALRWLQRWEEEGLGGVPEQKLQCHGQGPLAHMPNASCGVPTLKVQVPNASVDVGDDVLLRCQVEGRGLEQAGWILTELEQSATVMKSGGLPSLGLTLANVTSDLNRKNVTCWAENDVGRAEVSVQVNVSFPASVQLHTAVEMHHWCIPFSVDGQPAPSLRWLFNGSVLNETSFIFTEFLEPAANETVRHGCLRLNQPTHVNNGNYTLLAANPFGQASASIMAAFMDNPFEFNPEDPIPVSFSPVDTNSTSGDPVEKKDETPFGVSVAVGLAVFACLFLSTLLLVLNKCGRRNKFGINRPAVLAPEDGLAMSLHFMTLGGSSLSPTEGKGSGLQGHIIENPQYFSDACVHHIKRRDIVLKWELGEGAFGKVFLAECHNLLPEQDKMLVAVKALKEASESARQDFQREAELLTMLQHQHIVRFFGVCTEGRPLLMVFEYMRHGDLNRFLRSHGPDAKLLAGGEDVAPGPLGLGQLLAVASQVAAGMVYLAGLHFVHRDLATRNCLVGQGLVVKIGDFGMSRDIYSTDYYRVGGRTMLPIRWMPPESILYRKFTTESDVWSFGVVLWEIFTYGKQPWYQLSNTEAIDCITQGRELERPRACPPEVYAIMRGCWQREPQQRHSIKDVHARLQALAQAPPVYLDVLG

RPS6KA1 KD2 (human) = RPS6KA1 KD2 (human) (UniProt Q15418)
RPS6KA4 KD2 (human) = RPS6KA4 KD2 (human) (UniProt O75676)
CAMK2G (human) = CAMK2G (human) (UniProt Q13555)
IKBKE (human) = IKBKE (human) (UniProt Q14164)
RIPK4 (human) = RIPK4 (human) (UniProt P57078)
Chain of RIPK4 (human) (P57078 whole entry, looked up): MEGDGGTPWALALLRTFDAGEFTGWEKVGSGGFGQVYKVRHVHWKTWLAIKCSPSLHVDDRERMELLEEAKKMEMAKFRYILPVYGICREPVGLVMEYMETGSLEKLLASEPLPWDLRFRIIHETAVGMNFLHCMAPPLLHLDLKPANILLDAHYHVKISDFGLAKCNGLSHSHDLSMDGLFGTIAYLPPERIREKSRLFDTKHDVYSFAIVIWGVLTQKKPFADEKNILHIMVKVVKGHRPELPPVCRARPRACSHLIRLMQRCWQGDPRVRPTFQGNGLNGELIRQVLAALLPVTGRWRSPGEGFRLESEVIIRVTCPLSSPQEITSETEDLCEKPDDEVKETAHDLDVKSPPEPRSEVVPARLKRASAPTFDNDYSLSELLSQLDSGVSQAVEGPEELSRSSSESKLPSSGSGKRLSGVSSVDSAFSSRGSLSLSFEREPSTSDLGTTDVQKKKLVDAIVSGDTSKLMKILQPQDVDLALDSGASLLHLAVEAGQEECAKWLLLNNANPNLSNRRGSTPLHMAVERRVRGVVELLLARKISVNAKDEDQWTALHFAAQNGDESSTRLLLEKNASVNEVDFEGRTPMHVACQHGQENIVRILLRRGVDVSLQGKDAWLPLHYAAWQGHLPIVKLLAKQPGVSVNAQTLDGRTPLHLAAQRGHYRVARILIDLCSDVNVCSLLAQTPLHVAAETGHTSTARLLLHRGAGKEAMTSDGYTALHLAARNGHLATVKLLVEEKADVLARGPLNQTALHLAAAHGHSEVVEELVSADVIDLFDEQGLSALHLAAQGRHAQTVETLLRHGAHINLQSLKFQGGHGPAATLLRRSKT

Chain of KIT (human) (P10721 whole entry, looked up): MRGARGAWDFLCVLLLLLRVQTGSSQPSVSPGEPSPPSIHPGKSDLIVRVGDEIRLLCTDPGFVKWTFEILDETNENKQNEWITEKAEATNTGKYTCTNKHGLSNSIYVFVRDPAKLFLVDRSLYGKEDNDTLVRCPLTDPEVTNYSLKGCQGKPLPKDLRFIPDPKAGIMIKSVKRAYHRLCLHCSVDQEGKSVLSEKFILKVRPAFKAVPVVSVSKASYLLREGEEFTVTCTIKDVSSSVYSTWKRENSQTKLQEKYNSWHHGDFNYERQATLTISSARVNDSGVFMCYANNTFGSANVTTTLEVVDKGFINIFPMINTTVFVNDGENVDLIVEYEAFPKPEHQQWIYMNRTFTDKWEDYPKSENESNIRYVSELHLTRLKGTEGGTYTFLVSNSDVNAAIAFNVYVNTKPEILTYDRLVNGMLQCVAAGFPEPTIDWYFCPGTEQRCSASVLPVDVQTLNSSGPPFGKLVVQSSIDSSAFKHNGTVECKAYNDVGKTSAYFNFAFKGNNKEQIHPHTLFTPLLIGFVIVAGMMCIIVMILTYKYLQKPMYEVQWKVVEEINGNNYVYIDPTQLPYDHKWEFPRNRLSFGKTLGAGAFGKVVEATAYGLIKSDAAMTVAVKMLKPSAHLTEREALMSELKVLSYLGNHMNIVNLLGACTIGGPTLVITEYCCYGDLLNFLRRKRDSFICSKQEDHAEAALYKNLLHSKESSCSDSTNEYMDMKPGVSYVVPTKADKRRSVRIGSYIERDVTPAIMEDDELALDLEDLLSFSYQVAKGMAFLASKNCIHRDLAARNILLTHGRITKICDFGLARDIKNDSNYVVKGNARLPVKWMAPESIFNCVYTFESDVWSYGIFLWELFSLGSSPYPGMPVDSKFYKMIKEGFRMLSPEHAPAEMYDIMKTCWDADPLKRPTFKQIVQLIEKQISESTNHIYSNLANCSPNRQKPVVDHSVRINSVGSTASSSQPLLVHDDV
Chain of DCLK2 (human) (Q8N568 whole entry, looked up): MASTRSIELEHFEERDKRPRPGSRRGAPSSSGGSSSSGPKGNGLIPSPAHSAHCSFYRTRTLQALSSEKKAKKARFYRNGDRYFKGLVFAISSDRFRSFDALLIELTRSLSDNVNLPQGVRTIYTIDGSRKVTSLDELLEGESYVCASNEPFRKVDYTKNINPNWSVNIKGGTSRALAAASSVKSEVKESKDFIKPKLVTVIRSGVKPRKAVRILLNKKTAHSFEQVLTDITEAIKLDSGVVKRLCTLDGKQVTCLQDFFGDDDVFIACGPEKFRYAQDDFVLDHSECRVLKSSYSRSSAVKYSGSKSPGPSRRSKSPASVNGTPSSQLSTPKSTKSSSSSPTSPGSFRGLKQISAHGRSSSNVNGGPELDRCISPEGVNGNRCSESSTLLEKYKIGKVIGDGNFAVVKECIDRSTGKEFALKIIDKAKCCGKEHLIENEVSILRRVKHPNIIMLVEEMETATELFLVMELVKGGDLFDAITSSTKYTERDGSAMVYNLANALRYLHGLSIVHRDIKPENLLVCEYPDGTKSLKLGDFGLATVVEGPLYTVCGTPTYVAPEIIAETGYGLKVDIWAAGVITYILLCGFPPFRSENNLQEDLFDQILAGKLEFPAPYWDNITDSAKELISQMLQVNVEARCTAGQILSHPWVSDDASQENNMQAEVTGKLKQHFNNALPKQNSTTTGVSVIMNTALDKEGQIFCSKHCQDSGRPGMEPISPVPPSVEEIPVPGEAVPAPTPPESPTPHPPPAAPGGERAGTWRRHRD
Chain of PAK6 (human) (Q9NQU5 whole entry, looked up): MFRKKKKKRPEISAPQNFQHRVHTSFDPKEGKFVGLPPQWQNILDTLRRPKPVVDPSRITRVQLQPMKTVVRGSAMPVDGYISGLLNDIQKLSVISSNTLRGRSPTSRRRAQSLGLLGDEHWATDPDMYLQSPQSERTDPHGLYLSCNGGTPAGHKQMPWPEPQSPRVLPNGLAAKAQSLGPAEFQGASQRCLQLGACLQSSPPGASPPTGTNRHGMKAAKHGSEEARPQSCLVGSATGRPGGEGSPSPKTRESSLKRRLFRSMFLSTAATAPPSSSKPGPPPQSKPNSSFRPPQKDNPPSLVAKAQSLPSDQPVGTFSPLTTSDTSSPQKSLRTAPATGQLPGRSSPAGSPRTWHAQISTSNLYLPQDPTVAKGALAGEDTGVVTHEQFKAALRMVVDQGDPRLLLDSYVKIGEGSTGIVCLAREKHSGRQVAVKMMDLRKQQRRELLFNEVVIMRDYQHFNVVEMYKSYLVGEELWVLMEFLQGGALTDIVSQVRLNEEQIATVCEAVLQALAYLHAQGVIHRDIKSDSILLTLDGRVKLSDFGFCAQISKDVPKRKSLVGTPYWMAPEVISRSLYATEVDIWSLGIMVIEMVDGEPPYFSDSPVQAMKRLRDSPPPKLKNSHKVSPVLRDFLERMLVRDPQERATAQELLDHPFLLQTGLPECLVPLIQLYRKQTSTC

Question: With `CN(C)C/C=C/C(=O)Nc1cccc(C(=O)Nc2ccc(Nc3nccc(-c4c(-c5ccccc5)nn5ccccc45)n3)cc2)c1` as the compound, how does the kinase still bound, per cent of control (DCLK2 (human); compound 1.0 µM) read?
Answer: 100%

Question: What about the kinase still bound, per cent of control (KIT (human); compound 1.0 µM) of the same compound?
Answer: 0.15%

Question: What about the kinase still bound, per cent of control (PAK6 (human); compound 1.0 µM) of the same compound?
Answer: 100%

Question: And the kinase still bound, per cent of control (HIPK4 (human); compound 1.0 µM)?
Answer: 70%

Question: And the kinase still bound, per cent of control (MAP3K5 (human); compound 1.0 µM)?
Answer: 100%

Question: And the kinase still bound, per cent of control (MAPK6 (human); compound 1.0 µM)?
Answer: 71%

Question: What about the kinase still bound, per cent of control (BMP2K (human); compound 1.0 µM) of the same compound?
Answer: 100%

Question: And the kinase still bound, per cent of control ([1]; compound 1.0 µM)?
Answer: 100%

Question: What about the kinase still bound, per cent of control (MAP4K1 (human); compound 1.0 µM) of the same compound?
Answer: 69%

Question: And the kinase still bound, per cent of control (TIE1 (human); compound 1.0 µM)?
Answer: 23%

Question: What about the kinase still bound, per cent of control (MKNK2 (human); compound 1.0 µM) of the same compound?
Answer: 100%

Question: What about the kinase still bound, per cent of control (MAPK11 (human); compound 1.0 µM) of the same compound?
Answer: 6.6%

Question: What about the kinase still bound, per cent of control (NEK2 (human); compound 1.0 µM) of the same compound?
Answer: 93%

Question: What about the kinase still bound, per cent of control (CDK11B (human); compound 1.0 µM) of the same compound?
Answer: 43%

Question: And the kinase still bound, per cent of control ([2]; compound 1.0 µM)?
Answer: 12%

Question: And the kinase still bound, per cent of control (MERTK (human); compound 1.0 µM)?
Answer: 49%

Question: What about the kinase still bound, per cent of control (SIK1 (human); compound 1.0 µM) of the same compound?
Answer: 29%

Question: What about the kinase still bound, per cent of control (CHUK (human); compound 1.0 µM) of the same compound?
Answer: 93%

Question: What about the kinase still bound, per cent of control (CSNK1A1 (human); compound 1.0 µM) of the same compound?
Answer: 2%

Question: And the kinase still bound, per cent of control (PIM2 (human); compound 1.0 µM)?
Answer: 100%

Question: What about the kinase still bound, per cent of control (GAK (human); compound 1.0 µM) of the same compound?
Answer: 2.4%

Question: What about the kinase still bound, per cent of control (RPS6KA5 KD2 (human); compound 1.0 µM) of the same compound?
Answer: 97%

Question: What about the kinase still bound, per cent of control ([3]; compound 1.0 µM) of the same compound?
Answer: 0.75%

Question: And the kinase still bound, per cent of control (OXSR1 (human); compound 1.0 µM)?
Answer: 100%

Question: And the kinase still bound, per cent of control (CSNK1E (human); compound 1.0 µM)?
Answer: 0%

Question: What about the kinase still bound, per cent of control (CAMK1G (human); compound 1.0 µM) of the same compound?
Answer: 94%

Question: What about the kinase still bound, per cent of control (AURKC (human); compound 1.0 µM) of the same compound?
Answer: 84%

Question: And the kinase still bound, per cent of control (NEK11 (human); compound 1.0 µM)?
Answer: 100%

Question: And the kinase still bound, per cent of control (NEK1 (human); compound 1.0 µM)?
Answer: 100%

Question: And the kinase still bound, per cent of control (EPHB2 (human); compound 1.0 µM)?
Answer: 67%

Question: What about the kinase still bound, per cent of control ([4]; compound 1.0 µM) of the same compound?
Answer: 1.6%

Question: What about the kinase still bound, per cent of control (ANKK1 (human); compound 1.0 µM) of the same compound?
Answer: 73%

Question: What about the kinase still bound, per cent of control (IRAK1 (human); compound 1.0 µM) of the same compound?
Answer: 2%

Question: What about the kinase still bound, per cent of control (PRKAA1 (human); compound 1.0 µM) of the same compound?
Answer: 100%

Question: And the kinase still bound, per cent of control (MAP2K3 (human); compound 1.0 µM)?
Answer: 58%

Question: What about the kinase still bound, per cent of control (PIP5K1C (human); compound 1.0 µM) of the same compound?
Answer: 87%

Question: What about the kinase still bound, per cent of control (NTRK1 (human); compound 1.0 µM) of the same compound?
Answer: 30%

Question: And the kinase still bound, per cent of control (RPS6KA1 KD2 (human); compound 1.0 µM)?
Answer: 36%

Question: What about the kinase still bound, per cent of control (RPS6KA4 KD2 (human); compound 1.0 µM) of the same compound?
Answer: 91%

Question: What about the kinase still bound, per cent of control (CAMK2G (human); compound 1.0 µM) of the same compound?
Answer: 100%

Question: What about the kinase still bound, per cent of control (IKBKE (human); compound 1.0 µM) of the same compound?
Answer: 95%

Question: What about the kinase still bound, per cent of control (RIPK4 (human); compound 1.0 µM) of the same compound?
Answer: 100%

Question: For `Cc1ccc(NC(=O)c2ccc(NC(=O)/C=C/CN(C)C)cc2)cc1Nc1nccc(-c2cccnc2)n1`, which kinase still bound, per cent of control (DCLK2 (human); compound 10.0 µM) is on record?
Answer: 100%

Question: What about the Kd (KIT (human)) of the same compound?
Answer: 30 nM

Question: What about the kinase still bound, per cent of control (KIT (human); compound 10.0 µM) of the same compound?
Answer: 0%

Question: What about the kinase still bound, per cent of control (PAK6 (human); compound 10.0 µM) of the same compound?
Answer: 45%

Question: And the kinase still bound, per cent of control (HIPK4 (human); compound 10.0 µM)?
Answer: 18%

Question: And the kinase still bound, per cent of control (MAP3K5 (human); compound 10.0 µM)?
Answer: 100%

Question: And the kinase still bound, per cent of control (MAPK6 (human); compound 10.0 µM)?
Answer: 85%

Question: What about the kinase still bound, per cent of control (BMP2K (human); compound 10.0 µM) of the same compound?
Answer: 88%

Question: And the kinase still bound, per cent of control ([1]; compound 10.0 µM)?
Answer: 100%

Question: What about the kinase still bound, per cent of control (MAP4K1 (human); compound 10.0 µM) of the same compound?
Answer: 90%

Question: And the kinase still bound, per cent of control (TIE1 (human); compound 10.0 µM)?
Answer: 80%

Question: And the kinase still bound, per cent of control (MKNK2 (human); compound 10.0 µM)?
Answer: 4.2%

Question: What about the kinase still bound, per cent of control (MAPK11 (human); compound 10.0 µM) of the same compound?
Answer: 49%

Question: And the kinase still bound, per cent of control (NEK2 (human); compound 10.0 µM)?
Answer: 100%

Question: And the kinase still bound, per cent of control (CDK11B (human); compound 10.0 µM)?
Answer: 100%

Question: What about the kinase still bound, per cent of control ([2]; compound 10.0 µM) of the same compound?
Answer: 84%

Question: What about the kinase still bound, per cent of control (MERTK (human); compound 10.0 µM) of the same compound?
Answer: 81%

Question: What about the kinase still bound, per cent of control (SIK1 (human); compound 10.0 µM) of the same compound?
Answer: 100%

Question: And the kinase still bound, per cent of control (CHUK (human); compound 10.0 µM)?
Answer: 70%

Question: What about the kinase still bound, per cent of control (CSNK1A1 (human); compound 10.0 µM) of the same compound?
Answer: 55%

Question: What about the kinase still bound, per cent of control (PIM2 (human); compound 10.0 µM) of the same compound?
Answer: 100%

Question: What about the kinase still bound, per cent of control (GAK (human); compound 10.0 µM) of the same compound?
Answer: 8.6%

Question: And the kinase still bound, per cent of control (RPS6KA5 KD2 (human); compound 10.0 µM)?
Answer: 100%

Question: And the kinase still bound, per cent of control ([3]; compound 10.0 µM)?
Answer: 45%

Question: And the kinase still bound, per cent of control (OXSR1 (human); compound 10.0 µM)?
Answer: 82%

Question: And the kinase still bound, per cent of control (CSNK1E (human); compound 10.0 µM)?
Answer: 72%

Question: What about the kinase still bound, per cent of control (CAMK1G (human); compound 10.0 µM) of the same compound?
Answer: 79%

Question: And the kinase still bound, per cent of control (AURKC (human); compound 10.0 µM)?
Answer: 67%

Question: And the kinase still bound, per cent of control (NEK11 (human); compound 10.0 µM)?
Answer: 78%

Question: And the kinase still bound, per cent of control (NEK1 (human); compound 10.0 µM)?
Answer: 100%

Question: What about the kinase still bound, per cent of control (EPHB2 (human); compound 10.0 µM) of the same compound?
Answer: 100%

Question: What about the kinase still bound, per cent of control ([4]; compound 10.0 µM) of the same compound?
Answer: 39%

Question: And the kinase still bound, per cent of control (ANKK1 (human); compound 10.0 µM)?
Answer: 13%

Question: What about the kinase still bound, per cent of control (IRAK1 (human); compound 10.0 µM) of the same compound?
Answer: 13%

Question: What about the kinase still bound, per cent of control (PRKAA1 (human); compound 10.0 µM) of the same compound?
Answer: 73%

Question: And the kinase still bound, per cent of control (MAP2K3 (human); compound 10.0 µM)?
Answer: 50%

Question: And the kinase still bound, per cent of control (PIP5K1C (human); compound 10.0 µM)?
Answer: 90%

Question: And the kinase still bound, per cent of control (NTRK1 (human); compound 10.0 µM)?
Answer: 95%

Question: And the kinase still bound, per cent of control (RPS6KA1 KD2 (human); compound 10.0 µM)?
Answer: 77%

Question: What about the kinase still bound, per cent of control (RPS6KA4 KD2 (human); compound 10.0 µM) of the same compound?
Answer: 64%

Question: And the kinase still bound, per cent of control (CAMK2G (human); compound 10.0 µM)?
Answer: 95%

Question: What about the kinase still bound, per cent of control (IKBKE (human); compound 10.0 µM) of the same compound?
Answer: 100%

Question: What about the kinase still bound, per cent of control (RIPK4 (human); compound 10.0 µM) of the same compound?
Answer: 97%
